{"source": "patent US20070259428A1", "about": "“Use of Cloud Point System in Biotransformation” (Shanghai Health Creation Center for Biopharmaceutical R&D …, priority 2003, published 2007)", "key": {"[1]": {"conditions": "footnote a: mg/L; cited from earlier work"}, "[2]": {"conditions": "cited from earlier work"}, "[3]": {"experiment": "TLC analysis of distribution of substrate and product in CPS", "format": "physicochemical", "conditions": "FIG. 4", "protocol": "TLC analysis was performed to determine the distribution of substrate and products in CPS, using Silica gel 60 F254 (Merck) high-performance thin layer chromatography plates which is developed in Chloroform:ether (1:3) followed by soaking in phosphornolybdic acid solution and drying by heat. Substrate and products were separated, with their Rf values of cholesterol, a-AD and ADD being 0.62, 0.47, and 0.42, respectively.\nBy TLC analysis, the partition of substrate and product in CPS is viewed in FIG. 4. […] Partition of cells between the two phases is determined with hemocytometry. Its partition coefficient between the coacervate phase and the dilute phase is roughly 10, indicating the surface of Mycobacterium sp. is rather hydrophobic. This is in compliance with the report that Mycobacterium is a hydrophobic microbe."}, "[4]": {"test_system": "Mycobacterium sp. NRRL B 3683", "experiment": "Screening of nonionic surfactant: biocompatibility or potential toxicity to the microorganism, by final ADD concentration in surfactant-amended transformation medium", "format": "cell-based", "conditions": "high concentration of surfactant (2.0 g/100 ml), 28° C., 7 days", "protocol": "Microbial strain, Mycobacterium sp. NRRL B 3683, is preserved in Shanghai Health Creation Center for Biopharmaceuticals R&D. It is able to remove the side chain of cholesterol, giving out ADD and 4-AD as final products, at a ratio of ca. 10:1.\nTransformation medium (100 ml): (NH4)SO4 1.0 g, Na2HPO4 0.45 g, KH2PO4 0.34 g, MgSO4.7H2O 0.2 g, cholesterol 0.5 g, nonionic surfactant 2.0 g\nThe seed culture was grown aerobically at 28° C. at 220 r/min for 3 days with 20 ml of medium in a 250 ml Erlenmeyer flask. The seed culture was then transferred by 10% into 22 ml of transformation medium in a 250 ml Erlenmeyer flask, which was then shaken at 28° C. at 220 r/min for 7 days. A portion of the well-mixed transformation culture broth was withdrawn for analysis.\n1 ml of sample was withdrawn from culture broth and extracted with 4 ml of methanol for 2 hrs, followed by centrifugation. 0.8 ml of supernatant was taken for HPLC analysis. Hypesil C18 column using methanol:water (4:1) as mobile phase, flow rate of 0.7 ml/min, and detection wavelength at 254 nm were applied.\nFor selecting appropriate medium of microbial transformation, biocompatibility or potential toxicity of surfactant to microorganism is critical."}, "[5]": {"conditions": "cloud point; cited from earlier work"}}}
{"molecule": "Tween 60", "values": [{"measurement": "CMC", "setting": "[1]", "result": "27^a mg/L"}]}
{"molecule": "CC(C)CCC[C@@H](C)[C@H]1CC[C@H]2[C@@H]3CC=C4C[C@@H](O)CC[C@]4(C)[C@H]3CC[C@]12C", "note": "[cholesterol]", "values": [{"measurement": "solubility in water", "setting": "[2]", "result": "below 1 μM"}]}
{"molecule": "C[C@]12C=CC(=O)C=C1CC[C@@H]1[C@@H]2CC[C@]2(C)C(=O)CC[C@@H]12", "note": "[ADD]", "values": [{"measurement": "partition in CPS (dilute phase vs coacervate phase)", "setting": "[3]", "result": "based in the coacervate phase"}]}
{"molecule": "Tween 40", "values": [{"measurement": "CMC", "setting": "[1]", "result": "29^a mg/L"}]}
{"molecule": "Triton X-100", "values": [{"measurement": "biocompatibility with the microorganism", "setting": "[4]", "result": "incompatible with the microorganism"}, {"measurement": "CP", "setting": "[5]", "result": 64, "unit": "°C"}]}
